# Measurements from ChEMBL document CHEMBL1145637, “Dual binding site inhibitors of B-RAF kinase” (Bioorg Med Chem Lett, 2008).
# pIC50: −log10 of the molar value. Calls of active or inactive are those of the source. The rule behind the calls is not given here.
# Tests used:
# [1] = Metabolic stability in human liver microsome after 30 mins; assay type: ADME; conditions: liver microsomes, read-out: Stability
# [2] = Aqueous solubility in NaH2PO4 at pH 7.4 after 24 hrs by HPLC; assay type: physicochemical; conditions: for Activity: buffer, pH 7.4, 24 h; for solubility at 24 h: NaH2PO4 buffer, pH 7.4
# [3] = biological target: RAF proto-oncogene serine/threonine-protein kinase (Homo sapiens, UniProt P04049); experiment: Inhibition of C-RAF kinase
# RAF proto-oncogene serine/threonine-protein kinase, sequence (P04049 whole entry): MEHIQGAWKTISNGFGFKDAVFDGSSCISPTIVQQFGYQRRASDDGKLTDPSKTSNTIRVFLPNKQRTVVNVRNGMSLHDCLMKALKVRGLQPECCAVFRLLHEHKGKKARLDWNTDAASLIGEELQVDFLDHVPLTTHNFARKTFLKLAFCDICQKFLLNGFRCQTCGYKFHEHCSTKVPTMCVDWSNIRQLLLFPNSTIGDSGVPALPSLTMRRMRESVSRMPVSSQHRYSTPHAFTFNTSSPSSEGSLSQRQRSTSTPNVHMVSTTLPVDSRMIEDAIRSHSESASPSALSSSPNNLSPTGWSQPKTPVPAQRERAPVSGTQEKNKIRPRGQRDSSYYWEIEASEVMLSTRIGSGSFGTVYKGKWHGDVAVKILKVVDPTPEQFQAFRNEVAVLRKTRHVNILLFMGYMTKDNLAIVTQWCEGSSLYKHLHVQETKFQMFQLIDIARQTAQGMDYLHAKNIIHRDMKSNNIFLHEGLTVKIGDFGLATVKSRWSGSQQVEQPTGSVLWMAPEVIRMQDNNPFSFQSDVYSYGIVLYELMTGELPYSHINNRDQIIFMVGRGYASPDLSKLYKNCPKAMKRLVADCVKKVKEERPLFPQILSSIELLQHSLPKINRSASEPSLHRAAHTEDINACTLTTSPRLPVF
# [4] = biological target: Serine/threonine-protein kinase B-raf (Homo sapiens, UniProt P15056, V600E)
# Serine/threonine-protein kinase B-raf (Homo sapiens, UniProt P15056, V600E), sequence (P15056 2-766 V600E limits assumed): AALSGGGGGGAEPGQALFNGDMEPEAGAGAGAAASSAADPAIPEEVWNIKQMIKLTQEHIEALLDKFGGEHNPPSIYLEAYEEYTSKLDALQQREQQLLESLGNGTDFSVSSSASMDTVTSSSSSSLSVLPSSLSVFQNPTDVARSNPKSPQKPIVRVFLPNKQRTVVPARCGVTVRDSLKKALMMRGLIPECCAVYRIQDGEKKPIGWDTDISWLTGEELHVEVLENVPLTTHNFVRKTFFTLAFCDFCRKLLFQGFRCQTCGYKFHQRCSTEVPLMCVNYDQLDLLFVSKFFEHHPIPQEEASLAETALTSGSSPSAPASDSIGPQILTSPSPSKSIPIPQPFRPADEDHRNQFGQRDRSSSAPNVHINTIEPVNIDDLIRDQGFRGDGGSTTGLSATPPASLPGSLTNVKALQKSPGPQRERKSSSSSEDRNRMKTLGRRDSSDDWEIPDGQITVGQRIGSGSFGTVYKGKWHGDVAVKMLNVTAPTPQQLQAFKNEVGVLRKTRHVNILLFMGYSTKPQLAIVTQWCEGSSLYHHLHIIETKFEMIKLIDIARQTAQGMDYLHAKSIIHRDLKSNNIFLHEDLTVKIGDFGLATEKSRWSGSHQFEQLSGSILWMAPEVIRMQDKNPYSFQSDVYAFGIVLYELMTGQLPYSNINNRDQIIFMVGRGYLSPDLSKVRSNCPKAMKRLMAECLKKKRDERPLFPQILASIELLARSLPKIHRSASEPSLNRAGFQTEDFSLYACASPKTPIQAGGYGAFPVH
# Description: Inhibition of B-RAF V600E mutant
# [5] = (§1) Metabolic stability in rat liver microsome after 30 mins; assay type: ADME, microsomes; conditions: liver microsomes, read-out: Stability
# [6] = biological target: Serine/threonine-protein kinase B-raf (Homo sapiens, UniProt P15056)
# Serine/threonine-protein kinase B-raf (Homo sapiens, UniProt P15056), sequence (P15056 whole entry): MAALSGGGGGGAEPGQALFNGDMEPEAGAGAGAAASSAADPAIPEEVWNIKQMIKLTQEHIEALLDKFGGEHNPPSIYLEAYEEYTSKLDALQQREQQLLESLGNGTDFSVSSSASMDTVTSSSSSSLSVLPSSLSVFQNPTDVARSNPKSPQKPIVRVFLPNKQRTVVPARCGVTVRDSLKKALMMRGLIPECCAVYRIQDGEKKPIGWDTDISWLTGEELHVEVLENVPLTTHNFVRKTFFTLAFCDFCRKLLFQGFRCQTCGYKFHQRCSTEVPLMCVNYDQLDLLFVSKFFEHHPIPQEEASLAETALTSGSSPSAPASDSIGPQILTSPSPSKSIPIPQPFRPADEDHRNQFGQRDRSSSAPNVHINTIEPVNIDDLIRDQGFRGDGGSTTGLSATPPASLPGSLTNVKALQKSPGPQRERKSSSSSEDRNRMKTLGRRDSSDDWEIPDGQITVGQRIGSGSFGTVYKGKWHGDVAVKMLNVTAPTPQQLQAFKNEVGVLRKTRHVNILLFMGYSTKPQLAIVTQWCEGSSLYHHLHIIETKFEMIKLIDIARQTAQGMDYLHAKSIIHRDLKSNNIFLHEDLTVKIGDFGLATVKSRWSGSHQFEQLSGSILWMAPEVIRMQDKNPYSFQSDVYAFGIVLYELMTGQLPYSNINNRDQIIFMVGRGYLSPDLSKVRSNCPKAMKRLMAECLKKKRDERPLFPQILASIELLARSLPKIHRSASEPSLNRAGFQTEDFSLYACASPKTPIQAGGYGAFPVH
# Description: Inhibition of B-RAF kinase
# [7] = Inhibition of ERK phosphorylation
# Liver microsomes = experiment: as §1; assay type: ADME; conditions: microsomes, 0.5 h
Activity [2],Activity [7],Activity (Liver microsomes),SMILES,remaining at 0.5 h [1] [%],pIC50 [3],pIC50 [4],remaining at 0.5 h [5] [%],pIC50 [6],solubility at 24 h [2] [µM],pIC50 [7]
Not Active,,,O=C1NCCN1CCNc1nccc(-c2nc(C3CC3)[nH]c2-c2cccc(NS(=O)(=O)Cc3ccc(Cl)c(Cl)c3)c2)n1,85,7.39,6.85,52,6.46,,
Not Active,,,NC(=O)c1cccc(Nc2nccc(-c3nc(C4CC4)[nH]c3-c3cccc(NS(=O)(=O)Cc4ccc(Cl)c(Cl)c4)c3)n2)c1,76,7.31,6.56,44,6.05,,
,,,CNc1nccc(-c2[nH]c(C3CC3)nc2-c2cccc(NC(=O)Cc3ccc(Cl)cc3)c2)n1,,9.00,8.52,,8.05,0.4,5.29
,,,CNc1nccc(-c2[nH]c(C3CC3)nc2-c2cccc(NC(=O)Nc3ccc(Cl)c(C(F)(F)F)c3)c2)n1,80,8.30,7.80,57,7.68,0.3,5.85
,inactive,,O=C1NCCN1CCNc1nccc(-c2[nH]c(C3CC3)nc2-c2cccc(NS(=O)(=O)Cc3ccc(Cl)c(Cl)c3)c2)n1,,,,,,,
,,,NC(=O)c1cccc(Nc2nccc(-c3[nH]c(C4CC4)nc3-c3cccc(NC(=O)Nc4ccc(Cl)c(C(F)(F)F)c4)c3)n2)c1,,7.51,7.21,,7.46,0.4,5.68
,inactive,,NC(=O)c1cccc(Nc2nccc(-c3[nH]c(C4CC4)nc3-c3cccc(NS(=O)(=O)Cc4ccc(Cl)c(Cl)c4)c3)n2)c1,,,,,,,
,,,CNc1nccc(-c2[nH]c(C(F)(F)F)nc2-c2cccc(NC(=O)Cc3ccc(Cl)cc3)c2)n1,74,8.70,7.74,81,7.52,0.48,4.90
,,,O=C1NCCN1CCNc1nccc(-c2nc(C3CC3)[nH]c2-c2cc(Cl)ccc2Cl)n1,,,,,8.00,,
,,,NC(=O)c1cccc(Nc2nccc(-c3[nH]c(C(F)(F)F)nc3-c3cccc(NC(=O)Cc4ccc(Cl)cc4)c3)n2)c1,71,7.77,7.07,47,6.97,0.35,4.52
,,,CC(C)(C)NC(=O)NCCNc1nccc(-c2[nH]c(C3CC3)nc2-c2ccccc2Cl)n1,,,,,7.08,,
,,,NC(=O)c1cccc(Nc2nccc(-c3[nH]c(C4CC4)nc3-c3cccc(NC(=O)Cc4ccc(Cl)cc4)c3)n2)c1,53,9.30,8.52,58,8.40,0.5,5.62
,,Not Active,CNC(=O)c1cc(Oc2ccc(NC(=O)Nc3ccc(Cl)c(C(F)(F)F)c3)cc2)ccn1 [SORAFENIB],80,,,,,6.3,5.08
,,,O=C(Nc1cccc(-c2nc(C3CC3)[nH]c2-c2ccnc(NCCN3CCNC3=O)n2)c1)Nc1ccc(Cl)c(C(F)(F)F)c1,50,7.85,7.66,44,7.18,6.2,5.64
,,,O=C(Cc1ccc(Cl)cc1)Nc1cccc(-c2nc(C3CC3)[nH]c2-c2ccnc(NCCN3CCNC3=O)n2)c1,38,9.00,8.70,60,8.15,35,5.52
,,,O=C(Cc1ccc(Cl)cc1)Nc1cccc(-c2nc(C(F)(F)F)[nH]c2-c2ccnc(NCCN3CCNC3=O)n2)c1,73,7.70,7.40,34,7.27,7.5,4.52

SMILES,Activity [2],Activity [7],Activity (Liver microsomes),remaining at 0.5 h [1] [%],pIC50 [3],pIC50 [4],remaining at 0.5 h [5] [%],pIC50 [6],solubility at 24 h [2] [µM],pIC50 [7]
CNc1nccc(-c2[nH]c(C3CC3)nc2-c2cccc(NS(=O)(=O)Cc3ccc(Cl)c(Cl)c3)c2)n1,Not Active,inactive,,60,7.59,6.86,87,6.33,,
